According to patent US20260274829A1, “NEW E3 UBIQUITIN LIGASE LIGAND, PROTEIN DEGRADATION AGENT AND USE THEREOF” (GLUETACS THERAPEUTICS (SHANGHAI) CO., LTD., priority 2023, published 2026):

Target: T1, human Cereblon WT GST-tagged protein (Homo sapiens, UniProt Q96SW2)
T1 construct: purchased CISBIO 64BDCRBNPEH
Experiment: CRBN binding, HTRF CEREBLON BINDING kit
Details: CRBN binding, HTRF CEREBLON BINDING kit
Outline: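 HTRF competition in which test compounds displace a Thalidomide-Re tracer from GST-tagged human Cereblon WT, detected with a GST Eu antibody. Incubation lasted 3 hours at room temperature, with emission read at 620 and 665 nm. Inhibition rate was derived from 665/620 ratios relative to blank and solvent control wells.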

T1 sequence (Q96SW2 whole entry): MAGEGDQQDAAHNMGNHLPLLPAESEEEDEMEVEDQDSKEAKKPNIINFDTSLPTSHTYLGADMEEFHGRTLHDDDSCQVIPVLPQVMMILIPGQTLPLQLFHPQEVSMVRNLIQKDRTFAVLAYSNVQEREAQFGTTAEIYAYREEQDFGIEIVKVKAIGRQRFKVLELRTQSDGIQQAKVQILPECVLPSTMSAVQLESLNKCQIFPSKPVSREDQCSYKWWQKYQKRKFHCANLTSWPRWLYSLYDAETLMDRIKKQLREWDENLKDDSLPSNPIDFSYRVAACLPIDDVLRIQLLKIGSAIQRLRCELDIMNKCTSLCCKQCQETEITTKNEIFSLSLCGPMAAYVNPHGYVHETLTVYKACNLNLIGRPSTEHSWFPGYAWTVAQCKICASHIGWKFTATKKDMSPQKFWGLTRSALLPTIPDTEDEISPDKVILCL

Row | IC50 | SMILES
1 | 1 to 1.9 µM | Cc1nc2c(F)cc(-c3nc(Nc4ccc(CN5CCN(Cc6ccc(N7CCC(=O)NC7=O)cc6)CC5)cn4)ncc3F)cc2n1C(C)C [GT-06665, 1-(4-((4-((6-((5-fluoro-4-(4-fluoro-1-isopropyl-2-methyl-1H-benzo[d]imidazol-6-yl)pyrimidin-2-yl)amino)pyridin-3-yl)methyl)piperazin-1-yl)methyl)phenyl)dihydropyrimidine-2,4(1H,3H)-dione]
2 | 1 to 1.9 µM | COc1cc(N2CCC(N(C)Cc3cccc(N4CCC(=O)NC4=O)c3)CC2)ccc1Nc1ncc(Cl)c(Nc2ccccc2P(C)(C)=O)n1 [GT-07616, 1-(3-(((1-(4-((5-chloro-4-((2-(dimethylphosphoryl)phenyl)amino)pyrimidin-2-yl)amino)-3-methoxyphenyl)piperidin-4-yl)(methyl)amino)methyl)phenyl)dihydropyrimidine-2,4(1H,3H)-dione]
3 | 0.5 to 1 µM | O=C1CCC(Nc2cccc(CN3CCN(C4CCN(c5ccc(Nc6ncc7nc(Nc8ccccc8)n(C8CCCC8)c7n6)cc5)CC4)CC3)c2)C(=O)N1 (stereo not shown) [GT-05943, 3-((3-((4-(1-(4-((9-cyclopentyl-8-(phenylamino)-9H-purin-2-yl)amino)phenyl)piperidin-4-yl)piperazin-1-yl)methyl)phenyl)amino)piperidine-2,6-dione]
4 | 0.5 to 1 µM | COc1cc(N2CCN(Cc3ccc(C4CCC(=O)NC4=O)cn3)CC2)ccc1Nc1ncc(Cl)c(Nc2ccccc2P(C)(C)=O)n1 (stereo not shown) [GT-07713, 3-(6-((4-(4-((5-chloro-4-((2-(dimethylphosphoryl)phenyl)amino)pyrimidin-2-yl)amino)-3-methoxyphenyl)piperazin-1-yl)methyl)pyridin-3-yl)piperidine-2,6-dione]
5 | 0.5 to 1 µM | O=C1CCN(c2ccc(CN3CCN(c4ccc(Nc5ncc6nc(Nc7ccccc7)n(C7CCCC7)c6n5)cc4)CC3)nc2)C(=O)N1 [GT-05839, 1-(6-((4-(4-((9-cyclopentyl-8-(phenylamino)-9H-purin-2-yl)amino)phenyl)piperazin-1-yl)methyl)pyridin-3-yl)dihydropyrimidine-2,4(1H,3H)-dione]
6 | < 0.5 µM | O=C1CCC(c2cncc(CN3CCN(c4ccc(-c5cc(F)c6c(c5)C(=O)N(C(C(=O)Nc5nccs5)c5ncn7c5CCC7)C6)cc4)CC3)c2)C(=O)N1 (stereo not shown) [GT-07472, 2-(6,7-dihydro-5H-pyrrolo[1,2-c]imidazol-1-yl)-2-(6-(4-(4-((5-(2,6-dioxopiperidin-3-yl)pyridin-3-yl)methyl)piperazin-1-yl)phenyl)-4-fluoro-1-oxoisoindolin-2-yl)-N-(thiazol-2-yl)acetamide]
7 | < 0.5 µM | Cc1cc(S(=O)(=O)N2CCN(Cc3cccc(N4CCC(=O)NC4=O)c3)CC2)ccc1Nc1ncc(Br)c(Nc2cccc(F)c2C(N)=O)n1 [GT-06832, 2-((5-bromo-2-((4-((4-(3-(2,4-dioxotetrahydropyrimidin-1(2H)-yl)benzyl)piperazin-1-yl)sulfonyl)-2-methylphenyl)amino)pyrimidin-4-yl)amino)-6-fluorobenzamide]
8 | < 0.5 µM | CN(Cc1cncc(C2CCC(=O)NC2=O)c1)C1CCN(c2ccc(-c3cc(F)c4c(c3)C(=O)N(C(C(=O)Nc3nccs3)c3ncn5c3CCC5)C4)cc2)CC1 (stereo not shown) [GT-07393, 2-(6,7-dihydro-5H-pyrrolo[1,2-c]imidazol-1-yl)-2-(6-(4-(4-(((5-(2,6-dioxopiperidin-3-yl)pyridin-3-yl)methyl)(methyl)amino)piperidin-1-yl)phenyl)-4-fluoro-1-oxoisoindolin-2-yl)-N-(thiazol-2-yl)acetamide]
9 | < 0.5 µM | CCc1cc2c(cc1N1CCC(N3CCN(Cc4ccc(C5CCC(=O)NC5=O)cn4)CC3)CC1)C(C)(C)c1[nH]c3cc(C#N)ccc3c1C2=O (stereo not shown) [GT-07705, 8-(4-(4-((5-(2,6-dioxopiperidin-3-yl)pyridin-2-yl)methyl)piperazin-1-yl)piperidin-1-yl)-9-ethyl-6,6-dimethyl-11-oxo-6,11-dihydro-5H-benzo[b]carbazole-3-carbonitrile]

Further lines, the compound ahead of its results:

Row | SMILES | IC50
10 | O=C1CCN(c2cccc(CN3CCC(N4CCN(c5ccc6c(c5)nc(NC(=O)c5cccc(C(F)(F)F)c5)n6[C@H]5CC[C@@H](CO)CC5)CC4)CC3)c2)C(=O)N1 [GT-05022, N-(5-(4-(1-(3-(2,4-dioxotetrahydropyrimidin-1(2H)-yl)benzyl)piperidin-4-yl)piperazin-1-yl)-1-((1s,4s)-4-(hydroxymethyl)cyclohexyl)-1H-benzo[d]imidazol-2-yl)-3-(trifluoromethyl)benzamide] | 1 to 1.9 µM
11 | O=C1CCC(c2ccc(CN3CCN(Cc4ccc5c(c4)nc(NC(=O)c4cccc(C(F)(F)F)c4)n5[C@H]4CC[C@@H](CO)CC4)CC3)cc2)C(=O)N1 (stereo partly shown) [GT-04978, N-(5-((4-(4-(2,6-dioxopiperidin-3-yl)benzyl)piperazin-1-yl)methyl)-1-((1s,4s)-4-(hydroxymethyl)cyclohexyl)-1H-benzo[d]imidazol-2-yl)-3-(trifluoromethyl)benzamide] | 1 to 1.9 µM
12 | CCc1cc2c(cc1N1CCC(N3CCN(Cc4ccc(N5CCC(=O)NC5=O)c(F)c4)CC3)CC1)C(C)(C)c1[nH]c3cc(C#N)ccc3c1C2=O [GT-07308, 8-(4-(4-(4-(2,4-dioxotetrahydropyrimidin-1(2H)-yl)-3-fluorobenzyl)piperazin-1-yl)piperidin-1-yl)-9-ethyl-6,6-dimethyl-11-oxo-6,11-dihydro-5H-benzo[b]carbazole-3-carbonitrile] | 0.5 to 1 µM
13 | O=C1CCN(c2ccc(CN3CCN(C4CCN(c5ccc(-c6cc(F)c7c(c6)C(=O)N(C(C(=O)Nc6nccs6)c6ncn8c6CCC8)C7)cc5)CC4(F)F)CC3)nc2)C(=O)N1 (stereo not shown) [GT-06319, 2-(6,7-dihydro-5H-pyrrolo[1,2-c]imidazol-1-yl)-2-(6-(4-(4-(4-((5-(2,4-dioxotetrahydropyrimidin-1(2H)-yl)pyridin-2-yl)methyl)piperazin-1-yl)-3,3-difluoropiperidin-1-yl)phenyl)-4-fluoro-1-oxoisoindolin-2-yl)-N-(thiazol-2-yl)acetamide] | < 0.5 µM
14 | CC(C)(O)c1cc2nn(C3CCN(Cc4ccc(N5CCC(=O)NC5=O)cn4)CC3)cc2cc1NC(=O)c1cccc(C(F)(F)F)n1 [GT-05756, N-(2-(1-((5-(2,4-dioxotetrahydropyrimidin-1(2H)-yl)pyridin-2-yl)methyl)piperidin-4-yl)-6-(2-hydroxypropan-2-yl)-2H-indazol-5-yl)-6-(trifluoromethyl)picolinamide] | 0.5 to 1 µM
15 | CC(C)(O)c1cc2nc(C3CCN(Cc4ccc(N5CCC(=O)NC5=O)cn4)CC3)oc2cc1NC(=O)c1cccc(C(F)(F)F)n1 [GT-05774, N-(2-(1-((5-(2,4-dioxotetrahydropyrimidin-1(2H)-yl)pyridin-2-yl)methyl)piperidin-4-yl)-5-(2-hydroxypropan-2-yl)benzo[d]oxazol-6-yl)-6-(trifluoromethyl)picolinamide] | 1 to 1.9 µM
16 | O=C1CCN(c2ccc(CN3CCN(c4ccc(-c5cc(F)c6c(c5)C(=O)N(C(C(=O)Nc5nccs5)c5ncn7c5CCC7)C6)cc4)CC3)cc2)C(=O)N1 (stereo not shown) [GT-06164, 2-(6,7-dihydro-5H-pyrrolo[1,2-c]imidazol-1-yl)-2-(6-(4-(4-(4-(2,4-dioxotetrahydropyrimidin-1(2H)-yl)benzyl)piperazin-1-yl)phenyl)-4-fluoro-1-oxoisoindolin-2-yl)-N-(thiazol-2-yl)acetamide] | 0.5 to 1 µM
